In patent publication US9902725B2, “Heterocyclic derivatives as RORgamma modulators” (GENFIT, priority 2014, dated 2018) one finds IC50 data, which are given here for 21 compounds.

One assay addresses T1, human RORγt (Homo sapiens, UniProt P51449).
T1 sequence (P51449 1-497 isoform P51449-2): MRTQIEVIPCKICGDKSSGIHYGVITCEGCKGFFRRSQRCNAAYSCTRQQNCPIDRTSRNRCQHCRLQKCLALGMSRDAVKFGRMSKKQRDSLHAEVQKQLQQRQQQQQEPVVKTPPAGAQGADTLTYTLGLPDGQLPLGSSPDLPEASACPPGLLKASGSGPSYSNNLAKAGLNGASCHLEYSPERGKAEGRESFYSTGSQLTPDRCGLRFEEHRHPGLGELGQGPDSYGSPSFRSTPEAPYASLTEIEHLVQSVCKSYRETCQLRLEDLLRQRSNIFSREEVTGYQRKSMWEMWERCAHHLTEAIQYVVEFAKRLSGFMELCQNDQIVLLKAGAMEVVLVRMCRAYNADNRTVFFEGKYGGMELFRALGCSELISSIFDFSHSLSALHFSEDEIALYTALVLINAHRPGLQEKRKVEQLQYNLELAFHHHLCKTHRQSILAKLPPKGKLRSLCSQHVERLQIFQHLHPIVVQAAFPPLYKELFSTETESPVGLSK
Kind of assay: IL-17 secretion from EL4 murine lymphoma overexpressing human RORγt. It is filed as cell-based. Also on record: expressed in transfected cells; host or cells: EL-4 murine lymphoma. The note with it: IL-17 secretion inhibition, PMA and ionomycin stimulation, 24 h. The procedure: Murine EL-4 lymphoma cell line overexpressing human RORγt was used in this functional assay to assess compound ability to inhibit IL-17 cytokine secretion.
EL-4 cells are maintained in a standard culture medium RPMI supplemented with 10% fetal calf serum, 1% sodium pyruvate, 1% essential amino acids and 1% antibiotics at 37° C. in a humidified atmosphere of 5% CO2 and 95% air. Culture medium was changed every 2 days. EL4 cells were transfected with a plasmid encoding hRORγt (sequence identical to published sequence NM 001001523). […] Briefly, 1 μg of DNA/1 million cells was served to transfect EL-4 cells. Cell/DNA suspension was transferred into certified cuvette and the electroporation of RORγt plasmid was carried out using appropriate Nucleofector® program.
Cells were seeded in 96 well plates at a density of 150000 cells/well then treated with compounds of this invention at indicated concentrations and incubated for 24 hours at 37° C. in a humidified atmosphere of 5% CO2 and 95% air. EL-4 cells were pretreated with test compounds (RORγ modulators) and stimulated with PMA (10 ng/mL) and ionomycin (1 μM final concentration) in the presence of test compound concentrations for additional 24 h at 37° C. in a humidified atmosphere of 5% CO2 and 95% air. Subsequently, supernatants were collected (after centrifugation at 300 g for 10 minutes) to determine the concentrations of IL-17 by HTRF (CisBio, France) or ELISA (R&D Systems Europe) according to the manufacturer's protocols.

For assay [1], the target named is T2, RORγt ligand-binding domain (RORγt-LBD) (Homo sapiens, UniProt P51449).
T2 construct: 20 nM recombinantly expressed RORγ-LBD fused to GST
T2 sequence (P51449 269-508 limits assumed): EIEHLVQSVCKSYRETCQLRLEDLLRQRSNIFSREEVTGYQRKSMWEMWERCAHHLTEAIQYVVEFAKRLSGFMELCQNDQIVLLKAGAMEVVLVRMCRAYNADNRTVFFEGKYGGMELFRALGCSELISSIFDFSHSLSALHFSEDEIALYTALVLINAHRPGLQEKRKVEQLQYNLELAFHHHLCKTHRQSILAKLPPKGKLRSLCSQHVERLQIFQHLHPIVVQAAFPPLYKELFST
Kind of assay: Time-resolved FRET (TR-FRET) RORγt coactivator assay. It counts as biochemical. Conditions: GST-RORγ-LBD, biotinylated RIP140 peptide, coactivator displacement. (In general: Time-resolved FRET reads energy transfer from a long-lived donor to a nearby acceptor.)

What is called IC50 is the concentration needed to halve the response being measured. The low end stands for higher potency, the high end for lower potency.

For the compound `Cc1ccc(C(NC(=O)Cc2ccc3[nH]cc(CCC(=O)O)c3c2)c2nccs2)c(N2CCCCC2)c1` (stereo not drawn) [compound 140, 3-{5-[({[4-methyl-2-(piperidin-1-yl)phenyl](1,3-thiazol-2-yl)methyl}carbamoyl)methyl]-1H-indol-3-yl}propanoic acid], the IC50 was 1000 to 10000 nM at human RORγt and below 1000 nM in assay [1].
For `Cc1ccc(C(NC(=O)Cc2ccc3[nH]cc(CCC(=O)O)c3c2)c2ccccc2)c(NC(C)C)c1` (stereo not drawn) [compound 126, 3-(5-{[({4-methyl-2-[(propan-2-yl)amino]phenyl}(phenyl)methyl)carbamoyl]methyl}-1H-indol-3-yl)propanoic acid] the same measures were 1000 to 10000 nM and below 1000 nM.
Turning to `Cc1ccc(C(NC(=O)Cc2ccc3[nH]nc(CCC(=O)O)c3c2)c2ccccc2)c(OC(C)C)c1` (stereo not drawn) [compound 160, 3-{5-[({[4-methyl-2-(propan-2-yloxy)phenyl](phenyl)methyl}carbamoyl)methyl]-1H-indazol-3-yl}propanoic acid], the concentration for half-maximal inhibition (IC50) on human RORγt was 10000 to 30000 nM; in assay [1], below 1000 nM.
With `COc1ccc(C(NC(=O)Cc2ccc3[nH]cc(CCC(=O)O)c3c2)c2ccccc2)c(N2CCCCCC2)c1` (stereo not drawn) [compound 142, 3-{5-[({[2-(azepan-1-yl)-4-methoxyphenyl](phenyl)methyl}carbamoyl)methyl]-1H-indol-3-yl}propanoic acid], the IC50 on human RORγt is 1000 to 10000 nM; in assay [1] it was below 1000 nM.
For `Cc1ccc(C(NC(=O)Cc2ccc3[nH]cc(CCC(=O)O)c3c2)c2ccccc2N2CCCCC2)cc1` (stereo not drawn) [compound 188, 3-[5-({[(4-methylphenyl)[2-(piperidin-1-yl)phenyl]methyl]carbamoyl}methyl)-1H-indol-3-yl]propanoic acid] the same measures were 10000 to 30000 nM and below 1000 nM.
For `CC(C)CC(NC(=O)Cc1ccc2[nH]cc(CCC(=O)O)c2c1)c1cccc2ccccc12` (stereo not drawn) [compound 105, 3-[5-({[3-methyl-1-(naphthalen-1-yl)butyl]carbamoyl}methyl)-1H-indol-3-yl]propanoic acid] the same measures were 1000 to 10000 nM and below 1000 nM.
The corresponding values for `CC(C)(C)OC(=O)CCc1c[nH]c2ccc(NC(=O)NC(c3ccccc3)c3ccccc3N3CCCCC3)cc12` (stereo not drawn) [compound 55, tert-butyl 3-{5-[({phenyl[2-(piperidin-1-yl)phenyl]methyl}carbamoyl)amino]-1H-indol-3-yl}propanoate] are 1000 to 10000 nM and 10000 to 30000 nM.
With `O=C(O)CCCCc1c[nH]c2ccc(CC(=O)NC(c3ccccc3)c3ccccc3N3CCCCC3)cc12` (stereo not drawn) [compound 217, 5-{5-[({phenyl[2-(piperidin-1-yl)phenyl]methyl}carbamoyl)methyl]-1H-indol-3-yl}pentanoic acid], the IC50 against human RORγt is 1000 to 10000 nM; in assay [1], below 1000 nM.
The corresponding values for `COc1ccc(N2CCCCC2)c(C(NC(=O)Cc2ccc3[nH]cc(CCC(=O)O)c3c2)c2ccccc2)c1` (stereo not drawn) [compound 136, 3-{5-[({[5-methoxy-2-(piperidin-1-yl)phenyl](phenyl)methyl}carbamoyl)methyl]-1H-indol-3-yl}propanoic acid] are 1000 to 10000 nM and below 1000 nM.
The corresponding values for `CCN(CC)c1ccccc1C(CC(C)C)NC(=O)Cc1ccc2[nH]cc(CCC(=O)O)c2c1` (stereo not drawn) [compound 174, 3-{5-[({1-[2-(diethylamino)phenyl]-3-methylbutyl}carbamoyl)methyl]-1H-indol-3-yl}propanoic acid] are 1000 to 10000 nM and 1000 to 10000 nM.
The corresponding values for `COc1ccc(C(NC(=O)Cc2ccc3[nH]cc(CCC(=O)O)c3c2)c2ccccc2)c(N2CCCC2)c1` (stereo not drawn) [compound 109, 3-{5-[({[4-methoxy-2-(pyrrolidin-1-yl)phenyl](phenyl)methyl}carbamoyl)methyl]-1H-indol-3-yl}propanoic acid] are 1000 to 10000 nM and below 1000 nM.
On to `Cc1ccc(C(NC(=O)Cc2ccc3[nH]cc(CC(=O)O)c3c2)c2ccccc2)c(N2CCCCC2)c1` (stereo not drawn) [compound 87, 2-{5-[({[4-methyl-2-(piperidin-1-yl)phenyl](phenyl)methyl}carbamoyl)methyl]-1H-indol-3-yl}acetic acid], for which the IC50 is 1000 to 10000 nM on human RORγt and below 1000 nM in assay [1].
The corresponding values for `CC(C)(C)CC(NC(=O)Cc1ccc2[nH]cc(CCC(=O)O)c2c1)c1ccccc1N1CCCCC1` (stereo not drawn) [compound 186, 3-{5-[({3,3-dimethyl-1-[2-(piperidin-1-yl)phenyl]butyl}carbamoyl)methyl]-1H-indol-3-yl}propanoic acid] are 1000 to 10000 nM and below 1000 nM.
The corresponding values for `CC(C)Oc1ccc(C(NC(=O)Cc2ccc3[nH]cc(CCC(=O)O)c3c2)c2ccccc2)c(N2CCCCC2)c1` (stereo not drawn) [compound 152, 3-{5-[({phenyl[2-(piperidin-1-yl)-4-(propan-2-yloxy)phenyl]methyl}carbamoyl)methyl]-1H-indol-3-yl}propanoic acid] are 10000 to 30000 nM and below 1000 nM.
For `Cc1ccc(C(C(=O)NCc2ccc3[nH]cc(CCC(=O)O)c3c2)c2ccccc2)c(N2CCCCC2)c1` (stereo not drawn) [compound 209, 3-[5-({2-[4-methyl-2-(piperidin-1-yl)phenyl]-2-phenylacetamido}methyl)-1H-indol-3-yl]propanoic acid] the same measures were 1000 to 10000 nM and below 1000 nM.
For `CC(C)(C)OC(=O)CCc1c[nH]c2ccc(CC(=O)NC(c3ccccc3)c3ccc(O)cc3N3CCCCC3)cc12` (stereo not drawn) [compound 264, tert-butyl 3-{5-[({[4-hydroxy-2-(piperidin-1-yl)phenyl](phenyl)methyl}carbamoyl)methyl]-1H-indol-3-yl}propanoate], the concentration for half-maximal inhibition (IC50) (on human RORγt; in assay [1]) was 1000 to 10000 nM each time.
For the compound `Cc1ccc(C(NC(=O)Cc2ccc3[nH]cc(CCC(=O)OC(C)(C)C)c3c2)c2ccccc2)c(OC(C)C)c1` (stereo not drawn) [Cpd. 145, tert-butyl 3-{5-[({[4-methyl-2-(propan-2-yloxy)phenyl](phenyl)methyl}carbamoyl)methyl]-1H-indol-3-yl}propanoate], the IC50 was 1000 to 10000 nM on human RORγt and below 1000 nM in assay [1].
The corresponding values for `Cc1ccc(C(NC(=O)Cc2ccc3[nH]cc(CCC(=O)O)c3c2)c2ccccc2)c(N2CC=CC2)c1` (stereo not drawn) [compound 200, 3-{5-[({[2-(2,5-dihydro-1H-pyrrol-1-yl)-4-methylphenyl](phenyl)methyl}carbamoyl)methyl]-1H-indol-3-yl}propanoic acid] are 1000 to 10000 nM and below 1000 nM.
`CC(C)(C)OC(=O)CCc1c[nH]c2ccc(CC(=O)NC(c3ccccc3)c3ccc(Cl)cc3N3CCCC3)cc12` (stereo not drawn) [Cpd. 90, tert-butyl 3-{5-[({[4-chloro-2-(pyrrolidin-1-yl)phenyl](phenyl)methyl}carbamoyl)methyl]-1H-indol-3-yl}propanoate]: the IC50 was 10000 to 30000 nM against human RORγt and below 1000 nM in assay [1].
For `O=C(O)CCc1c[nH]c2ccc(CC(=O)NC3(c4ccccc4N4CCCCC4)CCCCC3)cc12` [compound 144, 3-{5-[({1-[2-(piperidin-1-yl)phenyl]cyclohexyl}carbamoyl)methyl]-1H-indol-3-yl}propanoic acid] the same measures were 1000 to 10000 nM and below 1000 nM.
For `Cc1cccc(C(NC(=O)Cc2ccc3[nH]cc(CCC(=O)O)c3c2)c2ccccc2N2CCCCC2)c1` (stereo not drawn) [compound 158, 3-[5-({[(3-methylphenyl)[2-(piperidin-1-yl)phenyl]methyl]carbamoyl}methyl)-1H-indol-3-yl]propanoic acid] the same measures were 1000 to 10000 nM and below 1000 nM.
